pEC50: −log10 of the molar value. Bridge positions count the residues as written; N and C are the ends. Square brackets hold non-standard residues; d marks the D form. Peptide text beside a SMILES is read from it. * marks the point of attachment. Biotin = O=C1N[C@H]2[C@H](CS[C@H]2CCCCC(=O)*)N1; Nle = CCCC[C@H](N)C(=O)O
How the values were obtained:
human LRP1(CL3)-Fc = human LRP1(CL3)-Fc (Homo sapiens, UniProt Q07954); test: Cell-free ELISA, binding of biotinylated peptide to captured LRP1; settings: Fig. 3, n = 3
human LRP1(CL2)-Fc = human LRP1(CL2)-Fc (Homo sapiens, UniProt Q07954); test: as above; settings: Fig. 3, n = 3
LRP1 = settings: read-out: LRP1-binding EC50; ref [18]; cited from earlier work
LRP1(CL2) = settings: ref [18]; cited from earlier work
human LRP1(CL4)-Fc = human LRP1(CL4)-Fc (Homo sapiens, UniProt Q07954); test: Cell-free ELISA, binding of biotinylated peptide to captured LRP1; settings: Supplementary Fig. S1
[1] = system: in vitro rat BBB model kit (RBT-24H); test: BBB permeability in in vitro rat BBB model; assay type: in vitro ADME; settings: 1 μM input, 30 min, 37 °C, fluorescence, n = 1

binding to LRP1(CL3) (human LRP1(CL3)-Fc)	binding to LRP1(CL2) (human LRP1(CL2)-Fc)	Compound	other results
no binding or slight binding	no binding or slight binding	CCCC[C@@H]1NC(=O)[C@H](CCC(=O)O)NC(=O)[C@H](C)NC(=O)[C@H](CC(C)C)NC(=O)[C@H](CCCC)NC(=O)[C@H](Cc2ccc(O)cc2)NC(=O)[C@H](CCCCN)NC(=O)[C@H](Cc2ccc(O)cc2)NC(=O)[C@H]([C@@H](C)O)NC(=O)[C@@H](NC(=O)[C@@H]2CCCN2C(=O)[C@@H](NC(=O)CNC(=O)[C@H](CCCCNC(=O)CCCC[C@@H]2SC[C@@H]3NC(=O)N[C@@H]32)NC(C)=O)[C@@H](C)O)CSSC[C@@H](C(=O)O)NC1=O [Biotin-KS-487] (Ac-K(Biotin)GTPCTYKY[Nle]LAE[Nle]C-OH; disulfide 5-15)	–
–	–	TWPKHFDKHTFYSILKLGKH-OH [Pep L57]	pEC50 (LRP1): 7.35; cross-reactivity to LRP1(CL2) (LRP1(CL2)): cross-reactivity
no binding or slight binding	no binding or slight binding	CCCC[C@H](NC(=O)[C@H](CCC(=O)O)NC(=O)[C@H](C)NC(=O)[C@H](CC(C)C)NC(=O)[C@H](CCCC)NC(=O)[C@H](Cc1ccc(O)cc1)NC(=O)[C@H](CCCCN)NC(=O)[C@H](Cc1ccc(O)cc1)NC(=O)[C@@H](NC(=O)[C@H](CS)NC(=O)[C@@H]1CCCN1C(=O)[C@@H](NC(=O)CNC(=O)[C@H](CCCCNC(=O)CCCC[C@@H]1SC[C@@H]2NC(=O)N[C@@H]21)NC(C)=O)[C@@H](C)O)[C@@H](C)O)C(=O)N[C@@H](CS)C(=O)O [Biotin-KS-487(linear)] (Ac-K(Biotin)GTPCTYKY[Nle]LAE[Nle]C-OH)	–
–	–	CSCC[C@@H]1NC(=O)[C@H](CCC(=O)O)NC(=O)[C@H](C)NC(=O)[C@H](CC(C)C)NC(=O)[C@H](CCSC)NC(=O)[C@H](Cc2ccc(O)cc2)NC(=O)[C@H](CCCCN)NC(=O)[C@H](Cc2ccc(O)cc2)NC(=O)[C@H]([C@@H](C)O)NC(=O)[C@@H](NC(=O)[C@@H]2CCCN2C(=O)[C@@H](NC(=O)CNC(=O)[C@H](CCCCNC(=O)CCCC[C@@H]2SC[C@@H]3NC(=O)N[C@@H]32)NC(C)=O)[C@@H](C)O)CSSC[C@@H](C(=O)O)NC1=O [Biotin-Pep0] (Ac-K(Biotin)GTPCTYKYMLAEMC-OH; disulfide 5-15; N-terminus and C-terminus assumed)	binding activity to LRP1(CL4) (human LRP1(CL4)-Fc): moderate binding activity
–	–	C[C@@H](O)[C@H](NC(=O)CNC(=O)[C@@H](N)CCCCNC(=O)c1ccc2c(c1)C(=O)OC21c2ccc(O)cc2Oc2cc(O)ccc21)C(=O)N[C@@H](Cc1ccccc1)C(=O)N[C@@H](Cc1ccccc1)C(=O)N[C@@H](Cc1ccc(O)cc1)C(=O)NCC(=O)NCC(=O)N[C@@H](CO)C(=O)N[C@@H](CCCNC(=N)N)C(=O)NCC(=O)N[C@@H](CCCCN)C(=O)N[C@@H](CCCNC(=N)N)C(=O)N[C@@H](CC(N)=O)C(=O)N[C@@H](CC(N)=O)C(=O)N[C@@H](Cc1ccccc1)C(=O)N[C@@H](CCCCN)C(=O)N[C@H](C(=O)N[C@@H](CCC(=O)O)C(=O)N[C@@H](CCC(=O)O)C(=O)N[C@@H](Cc1ccc(O)cc1)C(=O)O)[C@@H](C)O [Pep 5FAM-ANG2]	% input crossed to the brain side [1]: below 0.5%
